According to patent US9029553B2, “2-anilino nicotinyl linked 2-amino benzothiazole conjugates and process for the preparation thereof” (Council of Scientific & Industrial Research, priority 2011, dated 2015):
Entries after “also recorded” stand apart in the source; their conditions may differ.

Columns and labels:
PARP = experiment: Western blot of cell death targets; type: cell-based, human; settings: 1 μM, 24 h, HL-60
Method: Apoptosis was further characterized by the western blot analysis. Cells were treated with tested compounds at 1 μM for 24 h and expression of key apoptotic proteins like NF-kB, survivin; PARP, Bcl-2 and HSP-90 were analyzed through western blot. Both NF-kB and survivin are highly expressed in HL-60 cells. NF-kB is a transcriptional factor regulating the expression of several genes in the cells whereas survivin is a cell cycle regulated inhibitor of apoptosis protein (IAP), mostly over expressed in most of the tumors.
During apoptotic stimuli activated caspase-3 appears to cause DNA fragmentation through activation of caspase activated DNAse (CAD) in the nucleus of the cells. […] Cancer cells have very high level of heat shock proteins. These are molecular chaperones expressed constitutively under normal conditions to maintain protein homeostasis and are induced upon environmental stress.

[1] = test system: normal monkey kidney CV-1 cells; experiment: MTT cytotoxicity in normal cells; type: cell-based; settings: Primates
Method: These compounds were also evaluated for their cytotoxic potential in normal cells and for these purpose their IC50 value were also determine in normal monkey kidney CV-1 cells by using MTT method. The ratios of normal to cancer cells IC50 value were ranges from 10-1000 times (Table 5).

[2] = test system: Ehrlich Ascites Carcinoma (EAC); experiment: In vivo anticancer activity, Ehrlich ascites carcinoma; parameters: species or system Swiss mice; settings: for No. of deaths / toxicity to animals: EAC mice
Method: Model: Ehrlich Ascites Carcinoma (EAC)
Ehrlich ascites carcinoma (EAC) cells were collected from the peritoneal cavity of the swiss mice harbouring 8-10 days old ascitic tumor. 1×10^7 EAC cells were injected intraperitoneally in Swiss mice selected for the experiment on day 0. The next day, animals were randomized and divided into different groups. The treatment groups contained 7 animals each and control group contained 10 animals. Treatment groups were treated with different doses of test substances intraperitoneally from day 1-9. One of the treatment group received 5-fluorouracil (20 mg/kg, i.p) and it served as positive control. The tumor bearing control group was similarly administered normal saline (0.2 ml, i.p.). On day 12, animals were sacrificed and ascitic fluid was collected from peritoneal cavity of each mouse for the evaluation of tumor growth. Percent tumor growth inhibition was calculated based on the total number of tumor cells present in the peritoneal cavity as on day 12 of the experiment using the following formula.

[3] = test system: caspase-3, caspase-8, caspase-9 activity in HL-60 Cells; experiment: Caspases induction; type: cell-based, human; settings: 1 μM, 24 h
Description: So activation of caspases by compound 8 indicate that it induce apoptosis through both the intrinsic as well as extrinsic apoptotic pathway in HL-60 cells.

HL-60 cells [4] = experiment: Cell cycle analysis (FACS) by flow cytometry; type: cell-based, human; settings: 1 μM, up to 24 h
Description: The damage was more apparent with compound 8 and 6 (90% and 60% DNA damaged, respectively).

HL-60 cells [5] = experiment: Annexin V-FITC flow cytometric analysis of apoptosis and necrosis; type: cell-based, human; settings: 1 μM, 24 h
Method: During apoptosis an important biochemical change that take place in cells undergoing is flipping of phosphatidyl serine lipid from the inner leaflet of the cellular membrane to the outer one.
Annexin V a calcium dependent phospholipids binding protein has a high affinity for PS. […] Compounds 4-8 at 1 μM were treated with HL-60 cells were incubated for 24 h and the extent of apoptosis vs. necrosis was analyzed from the quadrant analysis of cell population with Annexin V-FITC. Both the apoptotic and post apoptotic cell populations increased in HL-60 cells.

HL-60 cells [6] = experiment: Flow cytometric analysis of reactive oxygen species (DCFH-DA); type: cell-based, human; settings: 1 μM, 24 hr, HL-60
Method: It was clear that these compounds were cytotoxic and induce apoptosis in HL-60 cells, now we have to found out the early events which were responsible for the induction of apoptosis like reactive oxygen species (ROS) or nitric oxide (NO) generation. Intracellular peroxide (ROS) in the cells was measured by DCFH-DA by using flow cytometry. Cells were incubated with tested compounds at 1 μM for 24 h in HL-60 cells and analyzed by flow cytometry after double staining with DCFH-DA (FIG. 7). Cells were analyzed for fluorescence intensity in FL1 vs. cell count. There was hardly any DCF fluorescence (ROS positive cells) in the untreated HL-60 cells, and this status remained unchanged when cells were incubated for 24 hr with compounds 7 and 8. […] Compounds 4 and 6 also induce the generation of peroxide in HL-60 cells (31 and 16% increase, respectively).

PC-3 cells = experiment: Fluorescent microscopic (DAPI) analysis of cell death; type: cell-based, human; settings: PC-3, 1 μM, 24 h
Method: (§1) The mechanism of cell death was also studied in HL-60 and PC-3 cells by fluorescent microscopic studies. The PC-3 cells were treated with compd. 8 as in case of HL-60 cells. For fluorescent DAPI staining, air dried smears of cells on glass slides were fixed in absolute methanol at −20° C. for 20 min and stained with DAPI (Sigma) at 1 μg/ml at room temperature for 20 min in the dark and mounted with 90% glycerol in PBS and observed under fluorescent microscope (Olympus).
(§2) Morphological changes of HL-60 and PC-3 cells in response to this compound 8 were observed. The untreated cells were having large sized nuclei.

HL-60 = experiment: as above; type: cell-based, human; settings: HL-60, 1 μM, 24 h, data not shown
Method: as §1, §2

RPMI-8226 = experiment: NCI SRB GI50 screen; type: cell-based; settings: Homo sapiens, Leukemia, 48 hrs exposure, read-out: Growth Inhibition GI50 RPMI-8226
Method: 2-Anilino nicotinyl linked 2-amino benzothiazole conjugates of formula 9-12 were tested against fifty nine human cancer cell lines derived from nine cancer types (leukemia, non-small cell lung cancer, colon cancer, CNS cancer, melanoma, ovarian cancer, renal cancer, prostate cancer and breast cancer) as per NCI protocol. For each compound, dose response curves for individual cell lines were measured at a minimum of five concentrations at 10 fold dilutions. A protocol of 48 hrs continuous drug exposure was used, and a sulforhodamine B (SRB) protein assay was used to estimate cell viability or growth.

## O=C(Nc1nc2ccc([N+](=O)[O-])cc2s1)c1cccnc1Nc1cc(F)c(F)c(F)c1 [Compound 8, N3-(6-nitro-1,3-benzothiazol-2-yl)-2-[(3,4,5-trifluorophenyl)amino]-3-pyridine carboxamide]
PARP
  PARP cleavage (western blot): highest potential
[1]
  IC50: > 100 µM
[2]; 0.1 mg/kg i.p. day 1-9, read day 12
  Growth Inhibition (%): 10.98%
[2]; 0.1 mg/kg i.p.
  No. of deaths / toxicity to animals: 0/7
[2]; 0.3 mg/kg i.p. day 1-9, read day 12
  Growth Inhibition (%): 53.15%
[2]; 0.3 mg/kg i.p.
  No. of deaths / toxicity to animals: 0/7
[2]; 0.4 mg/kg i.p. day 1-9, read day 12
  Growth Inhibition (%): Intolerable
[2]; 0.4 mg/kg i.p.
  No. of deaths / toxicity to animals: deaths of all the seven animals
[2]; 0.4 mg/kg i.p., listed as Comp 8
  No. of deaths / toxicity to animals: 7/7
[2]; 0.5 mg/kg i.p. day 1-9, read day 12
  Growth Inhibition (%): Intolerable
[2]; 0.5 mg/kg i.p.
  No. of deaths / toxicity to animals: 7/7
[2]; 2 mg/Kg i.p. day 1-9, read day 12
  Growth Inhibition (%): Intolerable
[2]; 2 mg/Kg i.p.
  No. of deaths / toxicity to animals: 7/7
[2]; 5 mg/Kg i.p. day 1-9, read day 12
  Growth Inhibition (%): Intolerable
[2]; 5 mg/Kg i.p.
  No. of deaths / toxicity to animals: 7/7
[2]; 20 mg/Kg i.p. day 1-9, read day 12
  Growth Inhibition (%): Intolerable
[2]; 20 mg/Kg i.p.
  No. of deaths / toxicity to animals: 7/7
[3]
  activation of caspases-3,-8,-9 activities: 2-3 folds
HL-60 cells [4]
  DNA damaged (sub-G0 fraction): 90%
HL-60 cells [5]
  apoptotic cells (Annexin V-FITC): around 70%
HL-60 cells [6]
  DCF fluorescence (ROS positive cells), in words: unchanged
PC-3 cells
  nuclear morphology (DAPI): fragmentatation of nuclei due to apoptosis; also recorded: condensation and fragmentation of nuclei
HL-60
  nuclear morphology (DAPI): fragmentatation of nuclei due to apoptosis

## COc1ccc2nc(NC(=O)c3cccnc3Nc3cc(OC)c(OC)c(OC)c3)sc2c1 [Compound 12, N-3-(6-methoxy-1,3-benzothiazol-2-yl)-2-(3,4,5-trimethoxyanilino) nicotinamide]
RPMI-8226
  GI50: 9.94 µM
